The values below come from ChEMBL document CHEMBL4421722, “Inhibitors of protein prenyltransferases” (2013).

Each structure is given as a SMILES string.

The experiment is filed under the species Rattus norvegicus. As to the kind of experiment: Inhibition of rat recombinant geranylgeranyltransferase type I expressed in Escherichia coli assessed as residual enzyme activity for geranylgeranylation of K-Ras4B at 50 uM incubated for 30 mins in presence of [3H]GGPP by scintillation counting assay relative to control.
With `Cc1ccc([C@@H]2C[C@@H](SCCC(C)C)[C@H](C(=O)O)CN2S(=O)(=O)c2ccccc2C)cc1`, the Activity stood at 75.2%.

For the molecule `CCCS[C@@H]1C[C@@H](c2ccc(C)cc2)N(S(C)(=O)=O)C[C@H]1C(=O)O`, the Activity came to 96.8%.

As for `CCc1ccc([C@@H]2C[C@@H](Sc3ccc(Cl)cc3)[C@H](C(=O)O)CN2S(=O)(=O)c2ccc(C)cc2)cc1`, the Activity was 72%.

For `Cc1ccc(S(=O)(=O)N2[C@@H](c3ccc(Br)cc3)C(C(=O)O)=CC[C@H]2c2ccc3c(c2)OCO3)cc1`, the Activity amounted to 74.4%.

Turning to `Cc1ccc(S(=O)(=O)N2[C@@H](c3cccc(Br)c3)C(C(=O)O)=CC[C@H]2c2ccc3c(c2)OCO3)cc1`, the Activity came out at 75.1%.

On to `CCCCCS[C@@H]1C[C@@H](c2ccc(C)cc2)N(S(=O)(=O)c2ccccc2)C[C@H]1C(=O)O`, for which the Activity turned out to be 81%.

As to `Cc1ccc([C@@H]2C[C@@H](SCC(C)C)[C@H](C(=O)O)CN2S(=O)(=O)c2ccc(Cl)cc2)cc1`, the Activity amounted to 66.3%.

Regarding `CCc1ccc([C@@H]2C[C@@H](Sc3ccc(OC)cc3)[C@H](C(=O)O)CN2S(=O)(=O)c2ccc(C)cc2)cc1`, the Activity is 90.8%.

Regarding `Cc1ccc(S(=O)(=O)N2C[C@@H](C(=O)O)[C@H](Sc3ccc(Cl)cc3)C[C@H]2c2ccccc2F)cc1`, the Activity came to 88.8%.

On to `Cc1ccc([C@@H]2CC=C(C(=O)O)[C@H](c3cccc(F)c3)N2S(=O)(=O)c2ccccc2)cc1`, for which the Activity came to 64.9%.

As for `C=CCS[C@@H]1C[C@@H](c2ccc(C)cc2)N(S(=O)(=O)c2ccccc2)C[C@H]1C(=O)O`, the Activity is 50.7%.

With `Cc1cccc([C@H]2C(C(=O)O)=CC[C@@H](c3ccc(Cl)cc3)N2S(C)(=O)=O)c1`, the Activity came out at 45.5%.

On to `COc1ccc([C@@H]2C[C@@H](Sc3ccccc3)[C@H](C(=O)O)CN2S(=O)(=O)c2ccccc2C)cc1`, for which the Activity amounted to 84.8%.

On to `COc1cccc([C@@H]2CC=C(C(=O)O)[C@H](c3ccc(C)cc3)N2S(=O)(=O)c2ccc(C)cc2)c1`, for which the Activity was 63.1%.

On to `Cc1ccc(S(=O)(=O)N2C[C@@H](C(=O)O)[C@H](SCc3ccc(C(C)(C)C)cc3)C[C@H]2c2ccc3c(c2)OCO3)cc1`, for which the Activity is 59.3%.

Consider `COc1cc([C@@H]2C[C@@H](SCc3ccc(Cl)cc3)[C@H](C(=O)O)CN2S(=O)(=O)c2ccc(C)cc2)cc(OC)c1OC`, for which the Activity came out at 44.9%.

As to `CCCS[C@@H]1C[C@@H](c2ccc(OC)cc2)N(S(=O)(=O)c2ccccc2)C[C@H]1C(=O)O`, the Activity is 89.5%.

As to `Cc1ccc(S(=O)(=O)N2[C@@H](c3ccc(Cl)cc3)C(C(=O)O)=CC[C@H]2c2ccc(C(C)C)cc2)cc1`, the Activity came out at 57.6%.

With `Cc1ccc([C@@H]2CC=C(C(=O)O)[C@H](c3cccc(C)c3)N2S(C)(=O)=O)cc1`, the Activity amounted to 56%.

`Cc1ccc([C@@H]2C[C@@H](SCCc3ccccc3)[C@H](C(=O)O)CN2S(=O)(=O)c2ccccc2)cc1`: the Activity is 55.5%.

For `Cc1ccc([C@@H]2CC=C(C(=O)O)[C@H](c3cccc(Br)c3)N2S(=O)(=O)c2ccccc2C)cc1`, the Activity was determined as 50%.

Turning to `CCCCCS[C@@H]1C[C@@H](c2ccc(OC)cc2)N(S(=O)(=O)c2ccc(Cl)cc2)C[C@H]1C(=O)O`, the Activity stood at 70.9%.

As for `Cc1ccc(S(=O)(=O)N2[C@@H](c3ccc(Br)cc3)C(C(=O)O)=CC[C@H]2c2cccc(Br)c2)cc1`, the Activity came to 57.9%.

As to `CCCS[C@@H]1C[C@@H](c2ccc(OC)cc2)N(S(=O)(=O)c2ccccc2C)C[C@H]1C(=O)O`, the Activity was determined as 88.4%.

Consider `Cc1ccc(S(=O)(=O)N2[C@@H](c3ccc(Br)cc3)C(C(=O)O)=CC[C@H]2c2ccc(C(C)C)cc2)cc1`, for which the Activity turned out to be 83.7%.

For `Cc1ccc(S(=O)(=O)N2C[C@@H](C(=O)O)[C@H](SC3CCCC3)C[C@H]2c2cccc(Br)c2)cc1`, the Activity amounted to 72.1%.

With `C=CCS[C@@H]1C[C@@H](c2ccc(OCC)cc2)N(S(=O)(=O)c2ccc(C)cc2)C[C@H]1C(=O)O`, the Activity stood at 96.7%.

As to `COc1ccc([C@@H]2C[C@@H](Sc3ccc(Cl)cc3)[C@H](C(=O)O)CN2S(=O)(=O)c2ccc(C)cc2)cc1OC`, the Activity was found to be 107%.

For the molecule `CC(=O)C1=CC[C@@H](c2ccc(Cl)cc2)N(S(=O)(=O)c2ccccc2C)C1`, the Activity is 91.9%.

Take `CCc1ccc([C@@H]2CC=C(C(=O)O)[C@H](c3ccc(C(C)(C)C)cc3)N2S(=O)(=O)c2ccc(C)cc2)cc1`: the Activity is 79.7%.

On to `COc1ccc(S[C@@H]2C[C@@H](c3ccccc3F)N(S(=O)(=O)c3ccc(C)cc3)C[C@H]2C(=O)O)cc1`, for which the Activity stood at 100%.

Take `COc1ccc(S[C@@H]2C[C@@H](c3ccc(C)cc3)N(S(=O)(=O)c3ccccc3C)C[C@H]2C(=O)O)cc1`: the Activity stood at 99%.

As for `COc1ccc([C@@H]2CC=C(C(=O)O)[C@H](c3ccc(F)cc3)N2S(=O)(=O)c2ccc(C)cc2)cc1OC`, the Activity came to 69.8%.

As for `Cc1ccc([C@@H]2CC=C(C(=O)O)[C@H](c3cccc(C)c3)N2S(=O)(=O)c2ccc(Cl)cc2)cc1`, the Activity was 89.9%.

Turning to `C=CCS[C@@H]1C[C@@H](c2ccc(C)cc2)N(S(=O)(=O)c2ccc(Cl)cc2)C[C@H]1C(=O)O`, the Activity was 74.3%.

Regarding `COc1cccc([C@@H]2C[C@@H](SCc3ccc(Cl)cc3)[C@H](C(=O)O)CN2S(=O)(=O)c2ccc(C)cc2)c1`, the Activity is 34.4%.

Take `Cc1ccc(S(=O)(=O)N2[C@@H](c3ccc(F)cc3)C(C(=O)O)=CC[C@H]2c2cccc(Br)c2)cc1`: the Activity was 62.7%.

In the case of `CCCCCS[C@@H]1C[C@@H](c2ccc(CC)cc2)N(S(=O)(=O)c2ccc(C)cc2)C[C@H]1C(=O)O`, the Activity was determined as 65.8%.

In the case of `O=C(O)C1=CC[C@@H](c2ccc(Cl)cc2)N(S(=O)(=O)c2ccc(Cl)cc2)[C@H]1c1cccc(F)c1`, the Activity was 44.8%.

For the molecule `CCCCS[C@@H]1C[C@@H](c2ccc(OC)cc2)N(S(=O)(=O)c2ccccc2C)C[C@H]1C(=O)O`, the Activity was 88.8%.

As for `Cc1ccc(S(=O)(=O)N2[C@@H](c3cccc(Br)c3)C(C(=O)O)=CC[C@H]2c2ccc(F)cc2)cc1`, the Activity was found to be 72.2%.

For the molecule `Cc1ccc(S(=O)(=O)N2C[C@@H](C(=O)O)[C@H](SCc3ccc(C(C)(C)C)cc3)C[C@H]2c2ccccc2F)cc1`, the Activity was 71.9%.

For `CCCCCS[C@@H]1C[C@@H](c2ccc(C)cc2)N(S(=O)(=O)c2ccc(C)cc2)C[C@H]1C(=O)O`, the Activity worked out at 74.3%.

In the case of `Cc1ccc([C@H]2C(C(=O)O)=CC[C@@H](c3cccc(Br)c3)N2S(=O)(=O)c2ccc(C)cc2)cc1`, the Activity was determined as 67.4%.

For `CCS[C@@H]1C[C@@H](c2ccc(Cl)cc2)N(S(=O)(=O)c2ccccc2C)C[C@H]1C(=O)O`, the Activity stood at 63.2%.

As for `COc1cccc([C@@H]2CC=C(C(=O)O)[C@H](c3cccc(Cl)c3)N2S(=O)(=O)c2ccc(C)cc2)c1`, the Activity is 67.1%.

For `CC(=O)C1=CC[C@@H](c2cccc(Cl)c2)N(S(=O)(=O)c2ccc(C)cc2)C1`, the Activity came out at 86%.

Take `COc1ccc(S[C@@H]2C[C@@H](c3ccc(C)cc3)N(S(=O)(=O)c3ccc(Cl)cc3)C[C@H]2C(=O)O)cc1`: the Activity came out at 82.7%.

Regarding `CC(=O)C1=CC[C@@H](c2ccc(C(C)C)cc2)N(S(=O)(=O)c2ccc(C)cc2)C1`, the Activity is 105%.

For the molecule `Cc1ccc(S(=O)(=O)N2[C@@H](c3ccc(F)cc3)C(C(=O)O)=CC[C@H]2c2ccc3c(c2)OCO3)cc1`, the Activity worked out at 68.2%.

With `Cc1ccc(S(=O)(=O)N2C[C@@H](C(=O)O)[C@H](SC3CCCC3)C[C@H]2c2ccccc2)cc1`, the Activity is 93.6%.
